Assay results from patent US20250320193A1, “OXOISOINDOLINYL SUBSTITUTED PIPERIDINEDIONE DERIVATIVE AND USE THEREOF” (GLUETACS THERAPEUTICS (SHANGHAI) CO., LTD., priority 2022, published 2025).

Key:
Assay type in all cases: cell-based
Settings in all cases: hPBMC, compound 500 nM, 24 hours, Western blot
[1] = target: IKZF1 (Homo sapiens (Human), UniProt Q13422+Q96SW2); assay: Western blot, substrate protein expression in hPBMC: IKZF1
Procedure, shortened: (§1)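 hPBMC, 1×10^6 cells/mL, 24 h compound exposure; RIPA lysis, BCA protein assay, SDS-PAGE, NC membrane immunoblot. Densitometry vs internal control → % protein remaining; degradation % = 100% − remaining; DC50 = conc. at 50% of DMSO band signal.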

[2] = target: GSPT1 (Homo sapiens (Human), UniProt P15170+Q96SW2); assay: Western blot, substrate protein expression in hPBMC: GSPT1
GSPT1, sequence (P15170 whole entry): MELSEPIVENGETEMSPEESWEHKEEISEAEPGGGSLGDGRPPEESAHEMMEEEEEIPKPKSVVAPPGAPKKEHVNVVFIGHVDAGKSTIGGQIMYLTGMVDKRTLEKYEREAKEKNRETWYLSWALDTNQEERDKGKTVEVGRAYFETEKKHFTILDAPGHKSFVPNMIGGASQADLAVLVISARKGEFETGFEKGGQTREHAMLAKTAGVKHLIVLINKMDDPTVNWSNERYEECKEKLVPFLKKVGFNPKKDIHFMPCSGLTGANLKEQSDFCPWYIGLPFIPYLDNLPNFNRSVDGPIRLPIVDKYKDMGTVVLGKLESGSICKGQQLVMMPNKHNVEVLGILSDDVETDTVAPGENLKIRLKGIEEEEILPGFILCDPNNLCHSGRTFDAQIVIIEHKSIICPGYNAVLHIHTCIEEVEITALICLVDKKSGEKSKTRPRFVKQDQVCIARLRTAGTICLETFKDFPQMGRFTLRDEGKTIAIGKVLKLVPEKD
GSPT1, sequence (Q96SW2 whole entry): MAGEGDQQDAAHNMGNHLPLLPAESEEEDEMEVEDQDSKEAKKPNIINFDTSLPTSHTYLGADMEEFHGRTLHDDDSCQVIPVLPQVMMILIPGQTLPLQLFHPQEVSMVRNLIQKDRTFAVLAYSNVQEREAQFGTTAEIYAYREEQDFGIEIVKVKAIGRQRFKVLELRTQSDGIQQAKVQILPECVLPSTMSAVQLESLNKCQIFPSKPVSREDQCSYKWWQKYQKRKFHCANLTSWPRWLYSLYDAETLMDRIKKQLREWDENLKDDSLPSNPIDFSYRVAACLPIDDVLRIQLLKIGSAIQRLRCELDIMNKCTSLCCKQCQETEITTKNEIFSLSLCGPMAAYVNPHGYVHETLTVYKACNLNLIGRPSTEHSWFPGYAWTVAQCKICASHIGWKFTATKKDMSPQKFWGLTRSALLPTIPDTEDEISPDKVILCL
GSPT1, sequence (Q16531 whole entry partner): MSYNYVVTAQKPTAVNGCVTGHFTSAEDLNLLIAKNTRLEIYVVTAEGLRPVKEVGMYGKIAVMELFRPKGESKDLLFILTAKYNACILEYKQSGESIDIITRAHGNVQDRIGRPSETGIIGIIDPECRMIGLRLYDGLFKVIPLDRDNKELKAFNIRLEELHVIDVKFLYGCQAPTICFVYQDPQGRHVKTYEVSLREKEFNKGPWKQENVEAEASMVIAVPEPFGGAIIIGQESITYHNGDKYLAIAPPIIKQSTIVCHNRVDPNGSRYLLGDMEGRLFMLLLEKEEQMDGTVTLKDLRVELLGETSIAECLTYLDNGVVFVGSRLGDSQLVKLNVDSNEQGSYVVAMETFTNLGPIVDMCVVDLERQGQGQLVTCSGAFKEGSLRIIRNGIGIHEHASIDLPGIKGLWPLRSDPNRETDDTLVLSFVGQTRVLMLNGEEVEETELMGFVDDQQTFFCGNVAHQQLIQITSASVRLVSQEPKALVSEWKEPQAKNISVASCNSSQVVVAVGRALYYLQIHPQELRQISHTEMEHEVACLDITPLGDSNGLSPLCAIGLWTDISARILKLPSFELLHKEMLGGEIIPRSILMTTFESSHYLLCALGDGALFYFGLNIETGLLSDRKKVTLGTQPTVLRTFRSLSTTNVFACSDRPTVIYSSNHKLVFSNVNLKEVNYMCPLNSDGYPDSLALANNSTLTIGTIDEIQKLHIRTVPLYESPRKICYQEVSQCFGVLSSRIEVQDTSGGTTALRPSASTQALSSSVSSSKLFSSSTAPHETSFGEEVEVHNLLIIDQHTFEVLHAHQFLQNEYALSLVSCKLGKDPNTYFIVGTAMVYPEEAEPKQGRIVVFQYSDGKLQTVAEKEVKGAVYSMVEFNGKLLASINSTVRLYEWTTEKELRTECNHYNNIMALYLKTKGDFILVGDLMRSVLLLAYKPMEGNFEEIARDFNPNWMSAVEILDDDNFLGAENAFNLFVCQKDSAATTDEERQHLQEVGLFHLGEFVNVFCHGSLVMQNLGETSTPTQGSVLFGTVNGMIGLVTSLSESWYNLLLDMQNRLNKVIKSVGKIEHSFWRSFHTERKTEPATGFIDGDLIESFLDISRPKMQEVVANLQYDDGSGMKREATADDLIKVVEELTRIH
Procedure, shortened: as §1

[3] = target: IKZF3 (Homo sapiens (Human), UniProt Q96SW2+Q9UKT9); assay: Western blot, substrate protein expression in hPBMC: IKZF3
IKZF3, sequence (Q9UKT9 whole entry): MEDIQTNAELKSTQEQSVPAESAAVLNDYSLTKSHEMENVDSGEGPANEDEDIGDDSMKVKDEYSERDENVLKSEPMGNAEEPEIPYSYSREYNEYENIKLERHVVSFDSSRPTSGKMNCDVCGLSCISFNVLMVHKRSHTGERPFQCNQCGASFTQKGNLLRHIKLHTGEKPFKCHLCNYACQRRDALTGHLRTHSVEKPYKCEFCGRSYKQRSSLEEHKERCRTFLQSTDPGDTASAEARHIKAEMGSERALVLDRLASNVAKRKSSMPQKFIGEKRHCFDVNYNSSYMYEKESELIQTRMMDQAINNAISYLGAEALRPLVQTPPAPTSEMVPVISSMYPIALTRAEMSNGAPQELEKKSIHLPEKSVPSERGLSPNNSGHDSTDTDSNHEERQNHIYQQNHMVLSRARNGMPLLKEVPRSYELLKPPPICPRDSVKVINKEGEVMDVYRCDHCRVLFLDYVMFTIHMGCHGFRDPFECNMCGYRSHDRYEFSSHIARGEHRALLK
IKZF3, sequence (Q96SW2 whole entry): as the sequence (Q96SW2 whole entry) above
IKZF3, sequence (Q16531 whole entry partner): as the sequence (Q16531 whole entry partner) above
Procedure, shortened: as §1

IKZF1, sequence (Q13422 whole entry): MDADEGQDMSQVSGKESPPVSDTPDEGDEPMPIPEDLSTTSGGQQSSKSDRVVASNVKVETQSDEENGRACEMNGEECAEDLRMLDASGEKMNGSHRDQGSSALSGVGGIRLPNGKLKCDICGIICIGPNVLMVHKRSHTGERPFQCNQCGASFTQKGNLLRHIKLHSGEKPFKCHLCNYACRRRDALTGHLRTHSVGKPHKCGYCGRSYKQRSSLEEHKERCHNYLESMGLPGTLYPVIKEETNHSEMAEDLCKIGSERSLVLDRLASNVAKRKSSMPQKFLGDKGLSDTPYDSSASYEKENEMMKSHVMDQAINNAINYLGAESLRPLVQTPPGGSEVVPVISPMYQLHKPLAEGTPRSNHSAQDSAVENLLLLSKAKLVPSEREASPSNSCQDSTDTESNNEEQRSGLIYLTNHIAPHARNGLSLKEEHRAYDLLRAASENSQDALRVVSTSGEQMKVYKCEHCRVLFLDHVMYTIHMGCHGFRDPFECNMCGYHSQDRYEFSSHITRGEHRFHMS
IKZF1, sequence (Q96SW2 whole entry): as the sequence (Q96SW2 whole entry) above
IKZF1, sequence (Q16531 whole entry partner): as the sequence (Q16531 whole entry partner) above

O=C1CCC(N2C(=O)c3ccc(CN4C[C@H]5C[C@@H]4CN5C(c4ccccc4)c4ccccc4)cc3C2=O)C(=O)N1 (stereo partly drawn) [GT-05959, 5-(((1R,4R)-5-benzhydryl-2,5-diazabicyclo[2.2.1]heptan-2-yl)methyl)-2-(2,6-dioxopiperidin-3-yl) isoindoline-1,3-dione]
substrate protein remaining % IKZF1 [1]: B (B represents substrate protein remaining % > 50%) | substrate protein remaining % GSPT1 [2]: A (A represents 0% ≤ substrate protein remaining % ≤ 50%) | substrate protein remaining % IKZF3 [3]: B (B represents substrate protein remaining % > 50%)

CC1CN(Cc2ccc3c(c2)C(=O)N(C2CCC(=O)NC2=O)C3=O)CC(C)N1C(c1ccccc1)c1ccccc1 (stereo not drawn) [GT-05968, 5-((4-benzhydryl-3,5-dimethylpiperazin-1-yl)methyl)-2-(2,6-dioxopiperidin-3-yl) isoindoline-1,3-dione]
substrate protein remaining % IKZF1 [1]: B (B represents substrate protein remaining % > 50%) | substrate protein remaining % GSPT1 [2]: A (A represents 0% ≤ substrate protein remaining % ≤ 50%) | substrate protein remaining % IKZF3 [3]: B (B represents substrate protein remaining % > 50%)

O=C1CCC(N2C(=O)c3ccc(C(=O)N4CC5CCC(C4)N5C(c4ccccc4)c4ccccc4)cc3C2=O)C(=O)N1 (stereo not drawn) [GT-05982, 5-(8-benzhydryl-3,8-diazabicyclo[3.2.1]octane-3-carbonyl)-2-(2,6-dioxopiperidin-3-yl) isoindoline-1,3-dione]
substrate protein remaining % IKZF1 [1]: B (B represents substrate protein remaining % > 50%) | substrate protein remaining % GSPT1 [2]: A (A represents 0% ≤ substrate protein remaining % ≤ 50%) | substrate protein remaining % IKZF3 [3]: B (B represents substrate protein remaining % > 50%)

C[C@@H]1CN(C(c2ccccc2)c2ccccc2)CCN1Cc1ccc2c(c1)C(=O)N(C1CCC(=O)NC1=O)C2=O (stereo partly drawn) [GT-06047, 5-(((R)-4-benzhydryl-2-methylpiperazin-1-yl)methyl)-2-(2,6-dioxopiperidin-3-yl) isoindoline-1,3-dione]
substrate protein remaining % IKZF1 [1]: B (B represents substrate protein remaining % > 50%) | substrate protein remaining % GSPT1 [2]: A (A represents 0% ≤ substrate protein remaining % ≤ 50%) | substrate protein remaining % IKZF3 [3]: B (B represents substrate protein remaining % > 50%)

O=C1CCC(N2C(=O)c3ccc(CN4CCN(C5c6cc(Cl)ccc6-c6ccc(Cl)cc65)CC4)cc3C2=O)C(=O)N1 (stereo not drawn) [GT-06049, 5-((4-(2,7-dichloro-9H-fluoren-9-yl)piperazin-1-yl)methyl)-2-(2,6-dioxopiperidin-3-yl) isoindoline-1,3-dione]
substrate protein remaining % IKZF1 [1]: B (B represents substrate protein remaining % > 50%) | substrate protein remaining % GSPT1 [2]: A (A represents 0% ≤ substrate protein remaining % ≤ 50%) | substrate protein remaining % IKZF3 [3]: A (A represents 0% ≤ substrate protein remaining % ≤ 50%)

O=C1CCC(N2C(=O)c3ccc(CN4CC5CN(C(c6ccccc6)c6ccccc6)CC5C4)cc3C2=O)C(=O)N1 (stereo not drawn) [GT-06053, 5-((5-benzhydrylhexahydropyrrolo[3,4-c]pyrrol-2 (1H)-yl)methyl)-2-(2,6-dioxopiperidin-3-yl) isoindoline-1,3-dione]
substrate protein remaining % IKZF1 [1]: B (B represents substrate protein remaining % > 50%) | substrate protein remaining % GSPT1 [2]: A (A represents 0% ≤ substrate protein remaining % ≤ 50%) | substrate protein remaining % IKZF3 [3]: B (B represents substrate protein remaining % > 50%)

O=C1CCC(N2C(=O)c3ccc(C(=O)N4CC5CN(C(c6ccccc6)c6ccccc6)CC5C4)cc3C2=O)C(=O)N1 (stereo not drawn) [GT-06068, 5-(5-benzhydryloctahydropyrrolo[3,4-c]pyrrole-2-carbonyl)-2-(2,6-dioxopiperidin-3-yl) isoindoline-1,3-dione]
substrate protein remaining % IKZF1 [1]: B (B represents substrate protein remaining % > 50%) | substrate protein remaining % GSPT1 [2]: A (A represents 0% ≤ substrate protein remaining % ≤ 50%) | substrate protein remaining % IKZF3 [3]: B (B represents substrate protein remaining % > 50%)

O=C1CCC(N2C(=O)c3ccc(CN4CCN(C(c5ccccc5F)c5ccccc5F)CC4)cc3C2=O)C(=O)N1 (stereo not drawn) [GT-06088, 5-((4-(bis(2-fluorophenyl)methyl)piperazin-1-yl)methyl)-2-(2,6-dioxopiperidin-3-yl) isoindoline-1,3-dione]
substrate protein remaining % IKZF1 [1]: B (B represents substrate protein remaining % > 50%) | substrate protein remaining % GSPT1 [2]: A (A represents 0% ≤ substrate protein remaining % ≤ 50%) | substrate protein remaining % IKZF3 [3]: B (B represents substrate protein remaining % > 50%)

C[C@@H]1CN(C(c2ccccc2)c2ccccc2)CCN1C(=O)c1ccc2c(c1)C(=O)N(C1CCC(=O)NC1=O)C2=O (stereo partly drawn) [GT-06094, 5-((R)-4-benzhydryl-2-methylpiperazine-1-carbonyl)-2-(2,6-dioxopiperidin-3-yl) isoindoline-1,3-dione]
substrate protein remaining % IKZF1 [1]: B (B represents substrate protein remaining % > 50%) | substrate protein remaining % GSPT1 [2]: A (A represents 0% ≤ substrate protein remaining % ≤ 50%) | substrate protein remaining % IKZF3 [3]: B (B represents substrate protein remaining % > 50%)

O=C1CCC(N2C(=O)c3ccc(CN4CCN(C(c5ccccc5)c5ccccc5)CC4C(F)(F)F)cc3C2=O)C(=O)N1 (stereo not drawn) [GT-06099, 5-((4-benzhydryl-2-(trifluoromethyl)piperazin-1-yl)methyl)-2-(2,6-dioxopiperidin-3-yl) isoindoline-1,3-dione]
substrate protein remaining % IKZF1 [1]: B (B represents substrate protein remaining % > 50%) | substrate protein remaining % GSPT1 [2]: A (A represents 0% ≤ substrate protein remaining % ≤ 50%) | substrate protein remaining % IKZF3 [3]: B (B represents substrate protein remaining % > 50%)

O=C1CCC(N2C(=O)c3ccc(CN4CCN(C(c5ccccc5)c5ccncc5)CC4)cc3C2=O)C(=O)N1 (stereo not drawn) [GT-06115, 2-(2,6-dioxopiperidin-3-yl)-5-((4-(phenyl(pyridin-4-yl)methyl)piperazin-1-yl)methyl) isoindoline-1,3-dione]
substrate protein remaining % IKZF1 [1]: B (B represents substrate protein remaining % > 50%) | substrate protein remaining % GSPT1 [2]: A (A represents 0% ≤ substrate protein remaining % ≤ 50%) | substrate protein remaining % IKZF3 [3]: B (B represents substrate protein remaining % > 50%)

O=C1CCC(N2Cc3c(ccc(CN4CCN(C(c5ccc(C(F)(F)F)cc5)c5ccc(C(F)(F)F)cc5)CC4)c3F)C2=O)C(=O)N1 (stereo not drawn) [GT-06200, 3-(5-((4-(bis(4-(trifluoromethyl)phenyl)methyl)piperazin-1-yl)methyl)-4-fluoro-1-oxoisoindolin-2-yl)piperidine-2,6-dione]
substrate protein remaining % IKZF1 [1]: B (B represents substrate protein remaining % > 50%) | substrate protein remaining % GSPT1 [2]: A (A represents 0% ≤ substrate protein remaining % ≤ 50%) | substrate protein remaining % IKZF3 [3]: A (A represents 0% ≤ substrate protein remaining % ≤ 50%)

O=C1CCC(N2Cc3cc(CN4CCN(C(c5ccc(C(F)(F)F)cc5)c5ccc(C(F)(F)F)cc5)CC4)c(F)cc3C2=O)C(=O)N1 (stereo not drawn) [GT-06201, 3-(5-((4-(bis(4-(trifluoromethyl)phenyl)methyl)piperazin-1-yl)methyl)-6-fluoro-1-oxoisoindolin-2-yl)piperidine-2,6-dione]
substrate protein remaining % IKZF1 [1]: B (B represents substrate protein remaining % > 50%) | substrate protein remaining % GSPT1 [2]: A (A represents 0% ≤ substrate protein remaining % ≤ 50%) | substrate protein remaining % IKZF3 [3]: A (A represents 0% ≤ substrate protein remaining % ≤ 50%)

O=C1CCC(N2C(=O)c3ccc(CN4CCN(C(c5ccc(C(F)(F)F)cc5)c5ccc(C(F)(F)F)cc5)CC4)cc3C2=O)C(=O)N1 (stereo not drawn) [GT-06203, 5-((4-(bis(4-(trifluoromethyl)phenyl)methyl)piperazin-1-yl)methyl)-2-(2,6-dioxopiperidin-3-yl) isoindoline-1,3-dione]
substrate protein remaining % IKZF1 [1]: B (B represents substrate protein remaining % > 50%) | substrate protein remaining % GSPT1 [2]: A (A represents 0% ≤ substrate protein remaining % ≤ 50%) | substrate protein remaining % IKZF3 [3]: A (A represents 0% ≤ substrate protein remaining % ≤ 50%)

O=C1CCC(N2C(=O)c3ccc(C(=O)N4CCN(C(c5ccc(C(F)(F)F)cc5)c5ccc(C(F)(F)F)cc5)CC4)cc3C2=O)C(=O)N1 (stereo not drawn) [GT-06217, 5-(4-(bis(4-(trifluoromethyl)phenyl)methyl)piperazine-1-carbonyl)-2-(2,6-dioxopiperidin-3-yl) isoindoline-1,3-dione]
substrate protein remaining % IKZF1 [1]: B (B represents substrate protein remaining % > 50%) | substrate protein remaining % GSPT1 [2]: A (A represents 0% ≤ substrate protein remaining % ≤ 50%) | substrate protein remaining % IKZF3 [3]: B (B represents substrate protein remaining % > 50%)

CC1(C)CN(C(=O)c2ccc3c(c2)C(=O)N(C2CCC(=O)NC2=O)C3=O)CCN1C(c1ccccc1)c1ccccc1 (stereo not drawn) [GT-06278, 5-(4-benzhydryl-3,3-dimethylpiperazine-1-carbonyl)-2-(2,6-dioxopiperidin-3-yl) isoindoline-1,3-dione]
substrate protein remaining % IKZF1 [1]: B (B represents substrate protein remaining % > 50%) | substrate protein remaining % GSPT1 [2]: A (A represents 0% ≤ substrate protein remaining % ≤ 50%) | substrate protein remaining % IKZF3 [3]: B (B represents substrate protein remaining % > 50%)
